Measurements taken from PMC9220178, “Preclinical Characterization of Antioxidant Quinolyl Nitrone QN23 as a New Candidate for the Treatment of Ischemic Stroke” (Antioxidants, 2022).

Legend:
[1] = tested on: Wistar male rats subjected to global cerebral ischemia; assay: Imaging of cerebral ROS with dihydroethidium (DHE) in brain ischemia; assay type: in vivo, rat; settings: 2.0 mg/kg i.v. at reperfusion onset; CA1 and cortical regions; 6 h of reperfusion
Protocol: In order to evaluate the antioxidant capacity of QN23 in vivo, the fluorescent probe dihydroethidium (DHE) was used for superoxide and hydrogen peroxide detection according to the experimental procedure described in [29], with minor modifications. Animals subjected to global cerebral ischemia (Wistar male rats of 280–300 g) were treated with vehicle or QN23 at the onset of the reperfusion period, and after 2 h of reperfusion DHE (3.0 mg/kg; 0.9 mg/mL in DMSO/polyethylene glycol 400/saline, 2.5:50:47.5 v/v) was intravenously injected (1 mL). DHE (Sigma-Aldrich, Merck KGaA, Darmstadt, Germany) was freshly weighted and dissolved just before the injection to avoid undesired air-driven oxidation. At 6 h of reperfusion after ischemia (4 h after DHE injection), the animals were euthanized and perfused with saline and 4% (w/v) paraformaldehyde in PBS. […]
Hippocampal CA1 subfields and cortical fields from a given brain section were randomly selected and analyzed with fluorescence microscopy (20× objective), and the selected images (425 × 340 μm) were digitized with a color CCD camera (1280 × 1024 pixel resolution). Fluorescence intensity (in red) of ROS-reacted DHE was evaluated and normalized to the number of DAPI-stained nuclei by using an image analysis software (Image-J 1.53). At least four images per brain sample, and 3 to 6 brains per experimental group, were evaluated and averaged. […]

[2] = tested on: primary neuronal cultures subjected to OGD; set-up: method as in PMID 30715875; settings: cited from earlier work
[3] = tested on: female Sprague Dawley rats; assay: Toxicity study, 4-day repeated i.v. dose; assay type: in vivo, rat
Protocol: For the toxicokinetics study of QN23, female Sprague Dawley rats (9–10 weeks, Envigo, Barcelona, Spain) were divided into three groups (n = 6 per group) and treated intravenously with different concentrations of QN23 (2.0, 6.0, and 18 mg/kg), in vehicle solution (ethanol/polyethylene glycol 400/saline, 1:200:60 v/v), as a single bolus of 1 mL injection at 3 mL/min. Samples of plasma were taken at 0.25, 0.5, 1, 2, 4, and 8 h after the first administration (on day 1) and QN23 concentration was determined by liquid chromatography–mass spectrometry in tandem (LC-MS/MS) analysis for pharmacokinetic study. For the determination of the toxicokinetic parameters, a noncompartmental analysis was performed using the Phoenix 64 WinNonlin software (version 8.0, Certara, Sant Louis, MO, USA). This study was carried out by Swiss BioQuant AG (Reinach, Switzerland). For the toxicity study of QN23, rats were divided into four groups (n = 5 per group) and treated intravenously with vehicle (control group) or different concentrations of QN23 (2.0, 6.0, and 18 mg/kg) as a single bolus injection in a 4-day repeated dose as described above. Pathology analyses, comprising hematology, clinical biochemistry, and coagulation, were performed, and heart, kidney, liver, and spleen necropsies were collected for macroscopic analysis. This study was carried out by Vivotecnia Research S.L (Madrid, Spain).

[4] = applied at onset of recovery period after OGD
[5] = four-day repeated i.v. dose, 2.0, 6.0 and 18 mg/kg
[6] = four-day repeated i.v. dose, at some doses, no treatment-related effects concluded

COc1ccc2nc(Cl)c(/C=[N+](\[O-])C(C)(C)C)cc2c1 [QN23, (Z)-N-tert-Butyl-1-(2-chloro-6-methoxyquinolin-3-yl)methanimine Oxide]
Fluorescence intensity of ROS-reacted DHE compared with vehicle [1]: decreased significantly
Most effective concentration for neuroprotection [2, 4]: 100 µM
Optimal range of concentration for neuroprotection [2, 4]: 0.3 to 250 µM
ROS and lipid peroxidation levels ([2]; primary neuronal cultures subjected to OGD): decreased
Tolerability of repeated intravenous administration ([3]; 2.0, 6.0 and 18 mg/kg i.v. for four days): well tolerated
Treatment-related systemic signs ([3]; 2.0, 6.0 and 18 mg/kg i.v., four-day repeated dose, compared with control group): no treatment-related systemic signs were detected
Absolute or relative organ weights versus control group [3, 5]: no significant differences
Food intake [3, 5]: no effects were observed
Macroscopic findings at necropsy (heart, kidneys, liver, spleen) [3, 5]: no macroscopic findings
Alkaline phosphatase (ALP) level, slight variation [3, 6]: decreased
Aspartate aminotransferase (AST) level, slight variation [3, 6]: increased
